Experimental data from patent publication US20260257998A1, “ERR MODULATORS” (University of Health Sciences and Pharmacy in St. Louis, priority 2023, published 2026).

How the values were obtained:
ERRα = biological target: T1, ERRα (Homo sapiens, UniProt P11474); test: ERRE luciferase reporter assay in HEK293 cells transfected with pcDNA3.1 ERRα; assay type: cell-based; set-up: key to EC50 (ERRα): ***<1 μM; **1-5 μM; *>5 μM; i.a. (inactive); settings: 24 hours treatment, luciferase activity
T1 construct: expressed in transfected cells; host or cells: HEK293
T1 sequence (P11474 1-423): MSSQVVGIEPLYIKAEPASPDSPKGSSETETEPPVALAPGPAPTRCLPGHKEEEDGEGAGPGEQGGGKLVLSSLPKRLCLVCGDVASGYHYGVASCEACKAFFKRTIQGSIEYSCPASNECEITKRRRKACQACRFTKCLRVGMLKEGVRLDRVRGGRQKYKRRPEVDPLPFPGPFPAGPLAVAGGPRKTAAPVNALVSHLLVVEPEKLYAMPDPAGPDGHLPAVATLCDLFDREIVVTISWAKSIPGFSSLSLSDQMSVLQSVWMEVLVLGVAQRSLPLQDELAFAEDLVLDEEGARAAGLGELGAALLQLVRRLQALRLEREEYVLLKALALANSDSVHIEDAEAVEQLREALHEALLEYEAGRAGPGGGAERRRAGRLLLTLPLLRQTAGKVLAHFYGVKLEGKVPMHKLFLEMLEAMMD

ERRγ = biological target: T2, ERRγ (Homo sapiens, UniProt P62508); test: ERRE luciferase reporter assay in HEK293 cells transfected with pcDNA3.1 ERRγ; assay type: cell-based; set-up: key to EC50 (ERRγ): ***<1 μM; **1-5 μM; *>5 μM; i.a. (inactive); settings: 24 hours treatment, luciferase activity
T2 construct: expressed in transfected cells; host or cells: HEK293
T2 sequence (P62508 1-458): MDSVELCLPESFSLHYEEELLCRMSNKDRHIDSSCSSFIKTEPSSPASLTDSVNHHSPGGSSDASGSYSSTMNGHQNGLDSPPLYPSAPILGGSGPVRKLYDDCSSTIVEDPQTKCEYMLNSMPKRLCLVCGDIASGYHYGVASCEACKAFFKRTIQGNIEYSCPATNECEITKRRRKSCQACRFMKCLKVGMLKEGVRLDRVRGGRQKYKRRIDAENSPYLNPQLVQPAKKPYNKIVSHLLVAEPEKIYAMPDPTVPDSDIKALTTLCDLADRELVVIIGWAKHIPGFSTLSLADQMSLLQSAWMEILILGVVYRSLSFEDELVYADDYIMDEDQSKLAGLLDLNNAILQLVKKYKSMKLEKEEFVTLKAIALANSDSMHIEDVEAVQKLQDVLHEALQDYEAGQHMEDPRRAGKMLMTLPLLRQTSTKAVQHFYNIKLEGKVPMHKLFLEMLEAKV

| SMILES | EC50 (ERRα) (ERRα) | EC50 (ERRγ) (ERRγ) | EC50 (ERRα) [µM] | EC50 (ERRγ) [µM] |
| --- | --- | --- | --- | --- |
| Clc1ccc(C2=NNC(c3ccc(Br)cc3)C2)cc1 (centres unmarked) [Entry 112, 5-(4-bromophenyl)-3-(4-chlorophenyl)-4,5-dihydro-1H-pyrazole] | i.a. | i.a. |  |  |
| Brc1ccc(C2=NNC(c3ccc(Br)cc3)C2)cc1 (centres unmarked) [Entry 113, 3,5-bis(4-bromophenyl)-4,5-dihydro-1H-pyrazole] | i.a. | i.a. |  |  |
| FC(F)(F)c1ccc(C2=NNC(c3ccc(Br)cc3)C2)cc1 (centres unmarked) [Entry 114, 5-(4-bromophenyl)-3-(4-(trifluoromethyl)phenyl)-4,5-dihydro-1H-pyrazole] | i.a. | i.a. |  |  |
| CC(C)(C)c1cc(C2CC(c3ccc(Br)cc3)=NN2)c(O)c(C(C)(C)C)c1 (centres unmarked) [Entry 115, 2-(3-(4-bromophenyl)-4,5-dihydro-1H-pyrazol-5-yl)-4,6-di-tert-butylphenol] | i.a. | i.a. |  |  |
| Oc1c(Br)cc(Br)cc1C1CC(c2ccc3ccccc3c2)=NN1 (centres unmarked) [Entry 116, 2,4-dibromo-6-(3-(naphthalen-2-yl)-4,5-dihydro-1H-pyrazol-5-yl)phenol] | i.a. | i.a. |  |  |
| COc1ccc(C2=NNC(c3cc(Br)cc(Br)c3O)C2)cc1 (centres unmarked) [Entry 117, 2,4-dibromo-6-(3-(4-methoxyphenyl)-4,5-dihydro-1H-pyrazol-5-yl)phenol] | i.a. | i.a. |  |  |
| Oc1cc(Br)ccc1C1CC(c2ccc(Br)cc2)=NN1 (centres unmarked) [Entry 118, 5-bromo-2-(3-(4-bromophenyl)-4,5-dihydro-1H-pyrazol-5-yl)phenol] | i.a. | i.a. |  |  |
| Oc1cc(Br)ccc1C1CC(c2ccc(C(F)(F)F)cc2)=NN1 (centres unmarked) [Entry 119, 5-bromo-2-(3-(4-(trifluoromethyl)phenyl)-4,5-dihydro-1H-pyrazol-5-yl)phenol] | i.a. | i.a. |  |  |
| Oc1ccccc1C1=NNC(c2ccc(Br)cc2O)C1 (centres unmarked) [Entry 120, 5-bromo-2-(3-(2-hydroxyphenyl)-4,5-dihydro-1H-pyrazol-5-yl)phenol] |  |  | > 5 | > 5 |
| Oc1ccccc1C1CC(c2cccc(Cl)c2)=NN1 (centres unmarked) [Entry 142, 2-(3-(3-chlorophenyl)-4,5-dihydro-1H-pyrazol-5-yl)phenol] |  |  | 1 to 5 | 1 to 5 |
